pIC50: −log10 of the molar value. Active and inactive are the calls of the source. No cut-off for these calls is given here.
Experiments:
Isocitrate lyase = Isocitrate lyase (Candida albicans, UniProt Q9P8Q7); experiment: Inhibition of Candida albicans isocitrate lyase
[1] = Inhibition of Staphylococcus aureus sortase A
A549 = experiment: Antitumor activity against human A549 cells; format: functional, cell-based
K562 = experiment: Antitumor activity against human K562 cells; format: functional, cell-based

Chain of Isocitrate lyase (Q9P8Q7 whole entry): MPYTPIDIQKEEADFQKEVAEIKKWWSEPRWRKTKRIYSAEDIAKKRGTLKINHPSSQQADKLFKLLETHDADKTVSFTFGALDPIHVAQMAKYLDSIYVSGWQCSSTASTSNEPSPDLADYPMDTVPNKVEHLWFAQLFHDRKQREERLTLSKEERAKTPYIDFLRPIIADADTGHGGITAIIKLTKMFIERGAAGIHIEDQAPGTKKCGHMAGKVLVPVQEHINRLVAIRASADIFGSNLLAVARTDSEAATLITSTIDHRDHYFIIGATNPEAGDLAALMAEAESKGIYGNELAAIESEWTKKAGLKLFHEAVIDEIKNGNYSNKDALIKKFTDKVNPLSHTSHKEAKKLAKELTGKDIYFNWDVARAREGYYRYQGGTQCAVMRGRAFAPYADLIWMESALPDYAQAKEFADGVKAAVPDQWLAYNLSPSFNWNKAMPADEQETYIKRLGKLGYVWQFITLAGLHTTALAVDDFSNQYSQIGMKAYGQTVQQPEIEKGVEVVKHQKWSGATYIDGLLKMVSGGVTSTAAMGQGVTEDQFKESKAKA

| Compound | pIC50 (Isocitrate lyase) | IC50 [1] [µg/mL] | Activity (A549) | Activity (K562) |
| --- | --- | --- | --- | --- |
| O=S(=O)([O-])O/C=C/c1ccc(O)c(O)c1.[Na+] [JASPISIN] | < 3.10 | 14.6 | – | – |
| CN(C)C(=N)N.CN(C)C(=N)N.O=S(=O)(O)O/C=C/c1ccc(OC2Oc3ccc(/C=C/OS(=O)(=O)O)cc3OC2c2ccc(O)c(O)c2)c(O)c1 (centres undefined) [listing 1 of 2 here] | – | – | inactive | inactive |
| CN(C)CCc1cn(C(c2ccc(O)c(O)c2)C2Oc3ccc(/C=C\OS(=O)(=O)O)cc3O2)cn1 (centres undefined) | – | – | inactive | inactive |
| O=S(=O)([O-])O/C=C/c1ccc2c(c1)OC(C(O)c1ccc(O)c(O)c1)O2.[Na+] (centres undefined) | 3.51 | > 200 | – | – |
| CN(C)C(=N)N.O=S(=O)(O)O/C=C/c1ccc2c(c1)OC(C(O)c1ccc(O)c(O)c1)O2 (centres undefined) [listing 2 of 2 here] | – | – | inactive | inactive |
| C=C(CC(=O)O)C(=O)O [ITACONATE] | 4.35 | – | – | – |
| O=S(=O)(O)O/C=C/c1ccc2c(c1)OC(C(O)c1ccc(O)c(O)c1)O2 (centres undefined) | – | – | inactive | inactive |
| O=S(=O)([O-])O/C=C\c1ccc(O)c(O)c1.[Na+] [ISOJASPISIN] | < 3.10 | 34.2 | – | – |
| O=S(=O)(O)O/C=C/c1ccc(OC2Oc3ccc(/C=C/OS(=O)(=O)O)cc3OC2c2ccc(O)c(O)c2)c(O)c1 (centres undefined) | – | – | inactive | inactive |
| COC(OC)C(OC)c1ccc(O)c(O)c1 (centres undefined) | 3.90 | > 200 | – | – |

Now from value to compound, other results behind:

| pIC50 (Isocitrate lyase) | IC50 [1] [µg/mL] | Compound | Activity (A549) | Activity (K562) |
| --- | --- | --- | --- | --- |
| 3.47 | > 200 | O=S(=O)([O-])O/C=C/c1ccc2c(c1)OC(c1ccc(O)c(O)c1)C(OS(=O)(=O)[O-])O2.[Na+].[Na+] (centres undefined) | – | – |
| 3.57 | 163.5 | O=S(=O)([O-])O/C=C/c1ccc(OC2Oc3ccc(/C=C/OS(=O)(=O)[O-])cc3OC2c2ccc(O)c(O)c2)c(O)c1.[Na+].[Na+] (centres undefined) | – | – |
| 3.79 | 68.3 | CN(C)CCc1cn(C(c2ccc(O)c(O)c2)C2Oc3ccc(/C=C\OS(=O)(=O)[O-])cc3O2)cn1.Cl.[Na+] (centres undefined) | – | – |
| 4.19 | > 200 | O=S(=O)([O-])O/C=C/c1ccc(OC2Oc3cc(/C=C/OS(=O)(=O)[O-])ccc3OC2c2ccc(O)c(O)c2)c(O)c1.[Na+].[Na+] (centres undefined) | inactive | inactive |
| < 3.37 | 82.4 | CN(C)C(=N)N.O=S(=O)(O)O/C=C/c1ccc2c(c1)OC(C(O)c1ccc(O)c(O)c1)O2 (centres undefined) [listing 1 of 2 here] | – | – |
| < 3.45 | > 200 | CN(C)CCc1cn(C(c2ccc(O)c(O)c2)C2Oc3ccc(/C=C/OS(=O)(=O)[O-])cc3O2)cn1.Cl.[Na+] (mixture of isomers) | – | – |
| < 3.42 | > 200 | CN(C)CCc1cn(C(c2ccc(O)c(O)c2)C2Oc3ccc(/C=C/OS(=O)(=O)[O-])cc3O2)cn1.[Na+] (centres undefined) | – | – |
| 4.04 | > 200 | CN(C)CCc1cn(C(c2ccc(O)c(O)c2)C2Oc3ccc(/C=C\OS(=O)(=O)[O-])cc3O2)cn1.[Na+] (centres undefined) | – | – |
| < 3.59 | > 200 | CN(C)C(=N)N.CN(C)C(=N)N.O=S(=O)(O)O/C=C/c1ccc(OC2Oc3ccc(/C=C/OS(=O)(=O)O)cc3OC2c2ccc(O)c(O)c2)c(O)c1 (centres undefined) [listing 2 of 2 here] | – | – |
